The text below walks through data of patent US9446034B2, “Pyrazolylaminopyridines as inhibitors of FAK” (GlaxoSmithKline LLC, priority 2008, dated 2016).

Assay [1] addresses T1, Full length Human FAK (FLAG-6×His-TEV-huFAK) (Homo sapiens, UniProt Q05397).
T1 construct: Full length Human FAK was expressed using baculovirus in Sf9 cells; made in house; host or cells: baculovirus in Sf9 cells
Nature of the assay: Biochemical assay for FAK activity, Assay 2: Flag-His-TEV-FAK1, LANCE Ultra ULight peptide phosphorylation. Particulars: Flag-His-TEV-FAK1, 10 μM ATP, 30 min pre-incubation; read-out: Assay 2 FAK H 31284A TRF PXC50 (converted). The procedure:
(§1) Biochemical Assay for FAK Activity
Assay 2: Flag-His-TEV-FAK1 was prepared in-house. Full length Human FAK was expressed using baculovirus in Sf9 cells with N-terminal FLAG-6×His tags followed by a TEV cleavage site (FLAG-6×His-TEV-huFAK). […] To measure inhibitors of FAK, compounds were first prepared as a 100× stock in 100% DMSO. A small portion of each compound solution (50 nL) was added to a black 384-well low-volume microtiter plate (Greiner 784076). A 1.2 nM Flag-His-TEV-FAK1 solution was prepared in 1× reaction buffer containing 40 mM Tris/Tris-HCL, 10 mM MgCl2, 1 mM CHAPS, at a pH of 7.5, with 1 mM DTT added. 2.5 ul of the 1.2 nM Flag-FAK solution was added to the plates and pre-incubated with the compounds for 30 min at room temperature. […] After incubating for 120 minutes at room temperature, the reaction is quenched by adding 5 uL of 20 mM EDTA and 5nMEu-Anti-pTyr antibody in 1× LANCE detection buffer. After a 30 minute incubation at room temperature, the plate is read on a Perkin Elmer Viewlux with a 320-340 nm excitation filter and measuring emission at 615 nm and 665 nm. The ratio of 665 nm/615 nm is used for data normalization.
Background: Time-resolved FRET reads energy transfer from a long-lived donor to a nearby acceptor.

The next assay concerns the target T2, GST-tagged FAK (Homo sapiens, UniProt Q05397).
T2 construct: purchased Invitrogen PV3832
Kind of assay: Biochemical assay for FAK activity, Assay 1: GST-FAK, peptide substrate phosphorylation with 33P-ATP. The note with it: 5 μM ATP, 30 min pre-incubation, read-out: Assay 1 FAK TRF PXC50 (converted). As for the experimental part: as §1
To measure inhibitors of FAK, compounds were first prepared as a 10× stock in 10% DMSO. […] A 6-nM GST-FAK solution was prepared in 1.1× reaction buffer containing 44 mM HEPES, pH=7.2, 11 mM MgCl2, 2.2 mM MnCl2, 1.1 mM DTT and 0.011% Tween-20. Then, 20 μL of the 6 nM GST-FAK solution were pre-incubated with the compounds for 30 min at room temperature. […] The reaction was allowed to proceed for 90 min before being quenched with 40 μL of 1% H3PO4. A portion of the reaction mixture (60 μL) was transferred to a phospho-cellulose filter plate (Millipore; www.millipore.com, MAPHNOB50) and incubated for 20 minutes. The plate was filtrated, washed three times using 150 μL of 0.5% H3PO4 and dried at 50° C. for 30 min. After the addition of 60 μL Microscint-20 to the plate, radioactivity was measured using a TopCount (PerkinElmer; www.PerkinElmer.com).

T2 sequence (Q05397 whole entry): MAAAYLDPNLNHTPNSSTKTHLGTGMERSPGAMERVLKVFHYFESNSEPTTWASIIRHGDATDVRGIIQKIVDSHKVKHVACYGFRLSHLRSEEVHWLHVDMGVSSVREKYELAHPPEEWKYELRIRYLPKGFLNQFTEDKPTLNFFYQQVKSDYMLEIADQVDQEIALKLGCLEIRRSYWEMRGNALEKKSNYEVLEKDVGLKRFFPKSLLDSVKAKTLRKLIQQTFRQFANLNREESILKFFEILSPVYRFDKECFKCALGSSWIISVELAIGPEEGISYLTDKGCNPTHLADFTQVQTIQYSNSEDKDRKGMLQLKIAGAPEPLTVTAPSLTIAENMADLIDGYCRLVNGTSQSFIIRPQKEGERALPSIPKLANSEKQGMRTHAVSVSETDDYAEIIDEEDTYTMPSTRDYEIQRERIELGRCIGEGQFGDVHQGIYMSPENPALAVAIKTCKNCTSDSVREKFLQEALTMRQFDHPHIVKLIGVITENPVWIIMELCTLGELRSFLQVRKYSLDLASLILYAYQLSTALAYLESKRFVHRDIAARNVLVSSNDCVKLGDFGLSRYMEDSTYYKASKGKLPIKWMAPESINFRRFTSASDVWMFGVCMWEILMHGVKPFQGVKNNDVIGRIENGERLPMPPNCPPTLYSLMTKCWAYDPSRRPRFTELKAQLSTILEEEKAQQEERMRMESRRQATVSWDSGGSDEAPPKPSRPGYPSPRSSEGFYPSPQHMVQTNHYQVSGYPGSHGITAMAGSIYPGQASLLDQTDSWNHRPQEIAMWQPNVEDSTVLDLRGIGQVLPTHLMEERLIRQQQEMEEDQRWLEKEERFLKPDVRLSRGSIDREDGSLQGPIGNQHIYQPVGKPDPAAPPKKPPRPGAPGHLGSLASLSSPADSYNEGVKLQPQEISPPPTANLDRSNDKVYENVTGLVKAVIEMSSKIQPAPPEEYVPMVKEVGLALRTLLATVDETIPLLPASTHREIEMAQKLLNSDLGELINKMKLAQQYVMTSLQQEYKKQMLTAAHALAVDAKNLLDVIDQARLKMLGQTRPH
T1 sequence (Q05397 whole entry): as above

Take `CCn1nccc1Nc1cc(Nc2cc(F)c(F)cc2C(=O)NC)c(Cl)cn1` [Example 10, 2-({5-Chloro-2-[(1-ethyl-1H-pyrazol-5-yl)amino]-4-pyridinyl}amino)-4,5-difluoro-N-methylbenzamide]: the IC50 in assay [1] was 10 nM; on GST-tagged FAK, 0.794 nM.

`CCNC(=O)c1ccccc1Nc1cc(Nc2ccnn2CC)ncc1Cl` [Example 44, 2-({5-Chloro-2-[(1-ethyl-1H-pyrazol-5-yl)amino]-4-pyridinyl}amino)-N-ethylbenzamide]: the IC50 in assay [1] is 63.1 nM; at GST-tagged FAK, 6.31 nM.
